Laboratory results from patent US5444161A, “Substrates for β-galactosidase” (Microgenics Corporation, priority 1989, dated 1995).
Values after ≈ are worked out from the molar mass of the structure shown.

Columns and labels:
Solubility of substrates = assay type: physicochemical
Excerpt: (§1) Table 1 gives the absorbance wavelength maximum (λmax) for the substrate and the reaction product, the molar extinction coefficient ε for the substrate and the reaction product, the solubility, and the spontaneous hydrolysis rate of the new substrates (stability). ONPG, the standard β-galactosidase substrate, is listed for comparision.

[1] = Absorbance wavelength maximum and molar extinction coefficient of substrate and reaction product; assay type: physicochemical; details: for Product λmax / Product ε: reaction product; for Product ε / Substrate ε: molar extinction coefficient
Excerpt: as §1

EA + ED28-digoxigenin = assay: Kinetic properties of substrates with EA + ED28-digoxigenin; assay type: biochemical; details: for Km / Vm Ratio to ONPG: no antibodies; for Km: four or five substrate concentrations; for Vm Ratio to ONPG / Turnover % ONPG: relative to ONPG
Procedure: (§2) The ability of the subject compounds to act as substrates for β-galactosidase and ED28-digoxigenin+EA was measured and compared with the results obtained with ONPG. ED28-digoxigenin+EA are a β-galactosidase α fragment-digoxigenin conjugate and the α complementation acceptor, respectively. ED28-digoxigenin consists of β-galactosidase amino acids 1-46, with cysteines at positions 1 and 46, and digoxgenin conjugated to the cysteines. Assays involving ED and EA are described in greater detail in U.S. Pat. No. 4,708,929. E28-digoxigenin and EA are usually components of a CEDIA™ assay; however, in this set of experiments, antibodies are not present. Four or five substrate concentrations were used to obtain the results. The turnover figures are given for EA+ED28-digoxigenin, not β-galactosidase.

β-galactosidase [2] = assay: CEDIA folate assay with new substrates; assay type: biochemical; details: relative to OCNPG, [Substrate]/Km: DNPG 3.2x, m-CN-NPG 2.5x, NGPG 3.2x; for % Open: absence of antibody; for % Inhib: inhibitory antibody; for High calib % Mod / High calib % Net: saturating analyte
Excerpt: (§3) β-galactosidase-analyte conjugates may be used in a variety of diagnostic assays. The subject compounds may be used in conjunction with these assays. Such assays may be used to determine the presence and/or concentration of various compounds, including specific proteins, carbohydrates, and polynucleotides. The assays may be heterogenous, including ELISA assays. In particular the subject compounds may be employed in CEDIA™ assays. CEDIA™ assays measure the amount of an analyte by means of the ability of the analyte to affect the observed enzyme activity when employing an anti-analyte antibody binding reaction to a β-galactosidase α complementing fragment conjugated to analyte or cross reactive compound. In the absence of free analyte, the observed β-galactosidase activity is lower. Thus in CEDIA™ assays β-galactosidase activity increases as the amount of analyte increases. CEDIA™ assays make use of the α complementation phenomenon between ED and EA as described in detail in U.S. Pat. No. 4,708,929.
(§4) The ability of the new substrates to function in CEDIA™ assays was tested. All values are relative to reaction rates using OCNPG (o-chloro-nitrophenyl-β-D-galactopyranoside). […] CEDIA™ assays for T3 (the thyroid hormone, triiodothyronine), digoxin, and folate were performed.
(§5) The terms in table 3 are defined as follows. [Substrate]/Km is the ratio of the concentation of substrate used in the assay to the Km of the enzyme for that substrate. The %open, %inhibition, %mod, and %net figures are all given relative to the results obtained with OCNPG.
(§6) %Open is the reaction rate in the absence of antibody. The figure given in table 3 is the reaction rate relative to the reaction rate obtained with OCNPG.
(§7) %Inhibition is defined as the difference between the reaction rate rate in the absence of antibody and the reaction rate in the presence of the inhibitory antibody found in the CEDIA™ assays, divided by the reaction rate in the absence of antibody. The figures given in table 3 are relative to the % inhibition figure obtained with OCNPG as substrate.
(§8) %Net is defined as the difference between the reaction rate of a CEDIA™ assay using the test substrate in the absence of analyte and presence of antibody and the same reaction in the presence of a saturating amount of analyte (i.e. maximum attainable reaction rate) and presence of antibody, divided by the difference between the reaction rate using OCNPG in the absence of analyte and presence of antibody, and the reaction rate with OCNPG using a saturating amount of analyte and presence of antibody.
(§9) %Mod is defined as the difference between the reaction rate of a CEDIA™ assay in the absence of analyte and presence of antibody and the same reaction in the presence of a saturating amount of analyte (i.e., maximum attainable reaction rate) and presence of antibody, divided by the same figure obtained for the reaction rate in the presence of a saturating amount analyte. The greater the %mod, the greater the range of analyte concentrations over which the assay will be effective. The figure given in Table 3 is the mod figure obtained for the new subtrate, divided by the %mod figure divided %mod figure obtained for OCNPG.

[3] = Spontaneous hydrolysis rate of substrates (stability); assay type: physicochemical; details: room temperature; normalized to 10 μg/ml starting concentration of substrate
Procedure: as §1
*Hydrolysis is measured at room temperature. Results are normalized to 10
μg/ml starting concentration of substrate.

β-galactosidase [4] = assay: CEDIA digoxin assay with new substrates; assay type: biochemical; details: relative to OCNPG, [Substrate]/Km 4.0x; for % Open: absence of antibody; for % Inhib: inhibitory antibody; for High calib % Mod / High calib % Net: saturating analyte
Excerpt: as §3, §4, §5, §6, §7, §8, §9

β-galactosidase [5] = assay: CEDIA T3 assay with new substrates; assay type: biochemical; details: for % Open / % Inhib / High calib % Mod / High calib % Net: T3 assay, relative to OCNPG, [Substrate]/Km: DNPG 3.3x, m-CN-NPG 4.1x, NGPG 2.0x; for % Open: absence of antibody; for % Inhib: inhibitory antibody; for High calib % Mod / High calib % Net: saturating analyte
Excerpt: as §3, §4, §5, §6, §7, §8, §9

β-galactosidase [6] = molecular target: β-galactosidase (Escherichia coli, UniProt P00722); assay: Kinetic properties of substrates with β-galactosidase; assay type: biochemical; details: for Vm Ratio to ONPG: relative to ONPG; for Km: four or five substrate concentrations
Procedure: as §2

β-galactosidase [7] = assay: CEDIA assays (T3, digoxin and folate), overall; assay type: biochemical
Excerpt: as §3, §4
The terms in table 3 are defined as follows. […]

Sequence of β-galactosidase (Escherichia coli, UniProt P00722) (P00722 2-1024): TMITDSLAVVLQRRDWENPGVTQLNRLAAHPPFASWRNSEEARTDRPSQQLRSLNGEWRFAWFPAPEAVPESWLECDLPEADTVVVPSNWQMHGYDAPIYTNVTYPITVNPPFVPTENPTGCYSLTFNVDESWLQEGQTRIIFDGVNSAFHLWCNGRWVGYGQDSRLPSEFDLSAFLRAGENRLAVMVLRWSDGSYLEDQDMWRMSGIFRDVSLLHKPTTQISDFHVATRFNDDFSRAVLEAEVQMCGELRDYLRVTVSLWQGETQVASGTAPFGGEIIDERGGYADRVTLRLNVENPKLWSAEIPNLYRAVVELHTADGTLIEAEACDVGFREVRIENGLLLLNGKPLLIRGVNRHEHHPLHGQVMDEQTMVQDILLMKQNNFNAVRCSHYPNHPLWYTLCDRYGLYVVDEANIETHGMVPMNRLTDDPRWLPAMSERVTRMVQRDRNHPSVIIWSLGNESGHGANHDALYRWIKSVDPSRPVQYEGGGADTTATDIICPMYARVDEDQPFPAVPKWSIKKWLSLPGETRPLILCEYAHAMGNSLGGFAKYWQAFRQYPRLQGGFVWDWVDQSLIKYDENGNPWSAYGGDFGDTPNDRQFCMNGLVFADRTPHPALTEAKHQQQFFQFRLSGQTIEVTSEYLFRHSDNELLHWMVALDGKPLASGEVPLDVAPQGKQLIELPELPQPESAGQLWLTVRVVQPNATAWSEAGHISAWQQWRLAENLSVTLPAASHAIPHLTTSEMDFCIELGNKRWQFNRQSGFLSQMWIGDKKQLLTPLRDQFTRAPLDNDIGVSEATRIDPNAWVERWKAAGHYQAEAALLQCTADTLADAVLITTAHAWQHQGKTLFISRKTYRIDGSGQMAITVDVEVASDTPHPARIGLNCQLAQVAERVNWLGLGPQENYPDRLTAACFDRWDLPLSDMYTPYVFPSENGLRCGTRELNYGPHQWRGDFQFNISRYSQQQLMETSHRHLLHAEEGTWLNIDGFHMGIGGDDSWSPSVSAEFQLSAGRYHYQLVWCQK

Row | Structure (SMILES) | Solubility (Solubility of substrates) [mg/mL] | Product λmax [1] [nm] | Product ε [1] [OD/M] | Substrate λmax [1] [nm] | Substrate ε [1] [OD/M] | Km (EA + ED28-digoxigenin) [mg/mL] | Vm Ratio to ONPG (EA + ED28-digoxigenin) | Turnover % ONPG (EA + ED28-digoxigenin) [%] | % Open (β-galactosidase [2]) [%] | % Inhib (β-galactosidase [2]) [%] | High calib % Mod (β-galactosidase [2]) [%] | High calib % Net (β-galactosidase [2]) [%] | Hydrolysis [3] [mA/Day] | % Open (β-galactosidase [4]) [%] | % Inhib (β-galactosidase [4]) [%] | High calib % Mod (β-galactosidase [4]) [%] | High calib % Net (β-galactosidase [4]) [%] | % Open (β-galactosidase [5]) [%] | % Inhib (β-galactosidase [5]) [%] | Vm Ratio to ONPG (β-galactosidase [6]) | also measured
1 | O=[N+]([O-])c1ccc(O[C@@H]2O[C@H](CO)[C@H](O)[C@H](O)[C@H]2O)cc1[N+](=O)[O-] [3,4 DNPG, 3,4-Dinitrophenyl-β-D-galactopyranoside] | 3.0 (≈ 8.66 mM) | 400 | 12400 | 280 | 6000 | 0.19 | 2.8 | 70 | 72 | 77 | 76 | 58 | 6 | 92 | 74 | 85 | 72 | 73 | 93 | 3.5 | High calib % Mod (β-galactosidase [5]): 88%; High calib % Net (β-galactosidase [5]): 71%
2 | COc1cc([N+](=O)[O-])ccc1O[C@@H]1O[C@H](CO)[C@H](O)[C@H](O)[C@H]1O [NGPG, o-Methoxy-p-nitrophenyl-β-D-galactopyranoside] | 1.0 (≈ 3.02 mM) | 430 | 17600 | 298 | 7400 | 0.28 | 3.6 | 56 | 85 | 104 | 102 | 84 | 1 | 81 | 98 | 85 | 72 | 41 | 87 | 3.7 | affinity compared with ONPG (in words) (EA + ED28-digoxigenin): somewhat lower affinity than ONPG; High calib % Mod (β-galactosidase [5]): 82%; High calib % Net (β-galactosidase [5]): 37%; affinity compared with ONPG (in words) (β-galactosidase [6]): somewhat lower affinity than ONPG
3 | O=Cc1cc([N+](=O)[O-])ccc1O[C@@H]1O[C@H](CO)[C@H](O)[C@H](O)[C@H]1O [NSPG] | < 40.0 | 382 | 16500 | 298 | 14900 | 0.14 | 3.0 | 54 | – | – | – | – | 19 | – | – | – | – | – | – | 3.2 | solubility (in words) (Solubility of substrates): high aqueous solubility; Km (β-galactosidase [6]): 334 µM
4 | O=[N+]([O-])c1ccccc1O[C@@H]1O[C@H](CO)[C@H](O)[C@H](O)[C@H]1O [ONPG, o-nitrophenyl-β-D-galactopyranoside, reference compound] | 10.0 (≈ 33.2 mM) | 414 | 3000 | 315 | 2000 | 0.15 | 1.0 | 100 | – | – | – | – | 0.4 | – | – | – | – | – | – | 1.0 | signal in CEDIA assays (in words) (β-galactosidase [7]): exceptionally weak signal; Km (β-galactosidase [6]): 266 µM
5 | N#Cc1cc(O[C@@H]2O[C@H](CO)[C@H](O)[C@H](O)[C@H]2O)ccc1[N+](=O)[O-] [m-CN-NPG, m-Cyano-p-nitrophenyl-β-D-galactopyranoside] | < 8.0 | 405 | 17000 | 308 | 9200 | 0.14 | 2.4 | 44 | 62 | 93 | 103 | 72 | 5 | 82 | 91 | 85 | 71 | 71 | 100 | 3.0 | High calib % Mod (β-galactosidase [5]): 100%; High calib % Net (β-galactosidase [5]): 63%; T3 assay results on increasing substrate concentration (in words) (β-galactosidase [5]; substrate increased from 2.7×Km to 4.1×Km): improved
